Test results taken from ChEMBL document CHEMBL2034885, “Diverse heterocyclic scaffolds as allosteric inhibitors of AKT” (J Med Chem, 2012).
Values after ≈ are worked out from the molar mass of the structure shown. Active and inactive are the calls of the source. The rule behind the calls is not given here.

Assays:
[1] = molecular target: RAC-alpha serine/threonine-protein kinase (Homo sapiens, UniProt P31749); assay: Inhibition of AKT1
[2] = Blood clearance in iv dosed Han Wistar rat
[3] = Inhibition of AKT phosphorylation at Ser473 in human MDA-MB-468 cells; format: cell-based
[4] = Volume of distribution at steady state in Han Wistar rat; format: ADME, organism-based; details: in vivo, read-out: Vdss
[5] = Oral bioavailability in Han Wistar rat; format: ADME, organism-based; details: in vivo
[6] = Inhibition of AKT phosphorylation at Thr308 in human BT474 cells; format: cell-based; details: BT-474
[7] = test system: Hepatocyte; assay: Intrinsic clearance in human hepatocytes assessed per 10^-6 cells
[8] = Fraction unbound in Han Wistar rat plasma; format: ADME, cell-free
[9] = test system: Hepatocyte; assay: Intrinsic clearance in Han Wistar rat hepatocytes assessed per 10^-6 cells
[10] = Lipophilicity, log D of the compound; details: octanol/water
[11] = Aqueous solubility at pH 7.4
[12] = test system: BT474c; assay: Inhibition of AKT-mediated PRAS40 phosphorylation at T246 in human BT474c cells at 0.01 uM to 10 uM after 24 hrs; format: cell-based
[13] = test system: Mus musculus; assay: Inhibition of AKT-mediated GSK3beta phosphorylation in human BT474c cells xenografted in nude mouse at 200 mg/kg, po after 4 hrs; format: functional, organism-based; set-up: dose 200 mg/kg
[14] = test system: BT474c; assay: Inhibition of AKT phosphorylation at Thr308 in human BT474c cells at 0.01 uM to 10 uM after 24 hrs; format: cell-based
[15] = test system: Mus musculus; assay: Inhibition of AKT phosphorylation at S473 in human BT474c cells xenografted in nude mouse at 100 mg/kg, po after 24 hrs; format: functional, organism-based; set-up: dose 100 mg/kg
[16] = test system: BT474c; assay: Antitumor activity against human BT474c cells xenografted in nude mouse assessed as tumor growth inhibition at 200 mg/kg, po qd for 21 days; format: functional, organism-based; set-up: dose 200 mg/kg
[17] = test system: Mus musculus; assay: Inhibition of AKT-mediated GSK3beta phosphorylation in human BT474c cells xenografted in nude mouse at 100 mg/kg, po after 24 hrs; format: functional, organism-based; set-up: dose 100 mg/kg
[18] = test system: Mus musculus; assay: Inhibition of AKT phosphorylation at S473 in human BT474c cells xenografted in nude mouse at 200 mg/kg, po after 4 hrs; format: functional, organism-based; set-up: dose 200 mg/kg
[19] = test system: BT474c; assay: Antitumor activity against human BT474c cells xenografted in po dosed nude mouse assessed as tumor growth inhibition administered qd for 21 days; format: functional, organism-based
[20] = test system: BT474c; assay: Inhibition of AKT phosphorylation at Ser473 in human BT474c cells at 0.01 uM to 10 uM after 24 hrs; format: cell-based
[21] = test system: Mus musculus; assay: Inhibition of AKT-mediated GSK3beta phosphorylation in human BT474c cells xenografted in nude mouse at 200 mg/kg, po after 24 hrs; format: functional, organism-based; set-up: dose 200 mg/kg
[22] = test system: BT474c; assay: Inhibition of AKT-mediated ribosomal S6 protein phosphorylation at S235/236 in human BT474c cells at 0.01 uM to 10 uM after 24 hrs; format: cell-based
[23] = test system: Mus musculus; assay: Inhibition of AKT-mediated GSK3beta phosphorylation in human BT474c cells xenografted in nude mouse at 100 mg/kg, po after 4 hrs; format: functional, organism-based; set-up: dose 100 mg/kg
[24] = test system: Mus musculus; assay: Inhibition of AKT phosphorylation at S473 in human BT474c cells xenografted in nude mouse at 200 mg/kg, po after 24 hrs; format: functional, organism-based; set-up: dose 200 mg/kg
[25] = test system: Mus musculus; assay: Inhibition of AKT phosphorylation at S473 in human BT474c cells xenografted in nude mouse at 100 mg/kg, po after 4 hrs; format: functional, organism-based; set-up: dose 100 mg/kg

Sequence of RAC-alpha serine/threonine-protein kinase (P31749 whole entry): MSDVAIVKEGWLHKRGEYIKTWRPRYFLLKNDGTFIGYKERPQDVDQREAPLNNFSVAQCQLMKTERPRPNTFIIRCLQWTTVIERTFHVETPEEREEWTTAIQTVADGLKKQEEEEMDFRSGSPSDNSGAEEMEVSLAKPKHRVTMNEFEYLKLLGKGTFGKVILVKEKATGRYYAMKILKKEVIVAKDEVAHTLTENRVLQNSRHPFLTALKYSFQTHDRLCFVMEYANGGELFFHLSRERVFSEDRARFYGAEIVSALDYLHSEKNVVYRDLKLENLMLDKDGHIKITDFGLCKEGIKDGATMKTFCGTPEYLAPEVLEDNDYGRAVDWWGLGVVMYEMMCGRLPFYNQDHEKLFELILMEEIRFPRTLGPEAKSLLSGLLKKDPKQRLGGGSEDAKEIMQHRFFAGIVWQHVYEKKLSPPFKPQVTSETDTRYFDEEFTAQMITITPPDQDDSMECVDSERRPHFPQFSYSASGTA

Compound	IC50 [1] [nM]	IC50 [3] [nM]	IC50 [6] [nM]	logD [10]	solubility [11] [µM]	other results
NC1(c2ccc(-c3ncc4nccn4c3-c3ccccc3)cc2)CCC1	1260	365	386	1.3	2500 (≈ 851 µg/mL)	clearance ([2]; whole blood): 62 mL/min/kg; Vd [4]: 10.3 L/kg; bioavailability [5]: 30%; CLH [7]: 3 µL/min; fraction unbound [8]: 0.371; CLH [9]: 16 µL/min
NC1(c2ccc(-c3c(-c4ccccc4)ccn4ncnc34)cc2)CCC1	2670	661	479	1.7	1000 (≈ 340 µg/mL)	
CCn1cnc2cnc(-c3ccc(C4(N)CCC4)cc3)c(-c3ccccc3)c21	8980	1540	1200	2		
NC1(c2ccc(-c3c(-c4ccccc4)ccn4ccnc34)cc2)CCC1	1810	388	324			
NC1(c2ccc(-c3c(-c4ccccc4)ccc4ncnn34)cc2)CCC1	2140	293	369			
NC1(c2ccc(-c3c(-c4ccccc4)ccc4ccnn34)cc2)CCC1	2720	824	1190			
NC1(c2ccc(-c3nn4cccc4cc3-c3ccccc3)cc2)CCC1	926	1230	2430	3.3	27 (≈ 9.16 µg/mL)	
NC1(c2ccc(-n3c(-c4ccccc4)nc4ccccc4c3=O)cc2)CCC1	41700	7730	5900	1.6	1400 (≈ 514 µg/mL)	
NC1(c2ccc(-c3nn4ccc(=O)nc4cc3-c3ccccc3)cc2)CCC1	8660	2170	1620	0.2	1900 (≈ 700 µg/mL)	
Cn1cnc2c(-c3ccc(C4(N)CCC4)cc3)c(-c3ccccc3)ccc21	2800	359	343			
NC1(c2ccc(-c3nc4ccccc4c(=O)n3-c3ccccc3)cc2)CCC1	7020	2080	2620	1.5	2300 (≈ 845 µg/mL)	
NC(=O)c1cnc(-c2ccc(C3(N)CCC3)cc2)c(-c2ccccc2)c1	1040	322	422			inhibition [12]: Active; inhibition [13]: Active; clearance ([2]; whole blood): 21 mL/min/kg; inhibition [14]: Active; inhibition [15]: Active; growth inhibition (GI) [16]: Active; inhibition [17]: Active; Vd [4]: 11.1 L/kg; bioavailability [5]: 48%; inhibition [18]: Active; growth inhibition (GI) [19]: Dose-dependent effect; inhibition [20]: Active; inhibition [21]: Active; inhibition [22]: Active; CLH [7]: 3 µL/min; fraction unbound [8]: 0.419; inhibition [23]: Active; CLH [9]: 4 µL/min; inhibition [24]: Active; inhibition [25]: Active
NC1(c2ccc(-c3c(-c4ccccc4)ncc4nccn34)cc2)CCC1	5400	2480	2180	1.7	2500 (≈ 851 µg/mL)	

Compounds with a lower IC50 [1], results first:

IC50 [1] [nM]	IC50 [3] [nM]	IC50 [6] [nM]	logD [10]	solubility [11] [µM]	Compound	other results
528	216	391			NC1(c2ccc(-c3nn4ccnc4cc3-c3ccccc3)cc2)CCC1	clearance ([2]; in vivo): 57 mL/min/kg; Vd [4]: 2.3 L/kg; bioavailability [5]: 0%; CLH [7]: 8 µL/min; fraction unbound [8]: 0.123; CLH [9]: 274 µL/min
348	92	82	2	110 (≈ 42.1 µg/mL)	NC(=O)c1ccn2c(-c3ccccc3)c(-c3ccc(C4(N)CCC4)cc3)nc2c1	
387	124	182	2.8	1900 (≈ 645 µg/mL)	NC1(c2ccc(-c3nc4ccccn4c3-c3ccccc3)cc2)CCC1	clearance ([2]; whole blood): 41 mL/min/kg; Vd [4]: 10.3 L/kg; bioavailability [5]: 36%; CLH [7]: 18 µL/min; fraction unbound [8]: 0.068; CLH [9]: 291 µL/min
188	47	89			NC1(c2ccc(-c3ncc4ncccc4c3-c3ccccc3)cc2)CCC1	
465	104	167	1.7	2000 (≈ 703 µg/mL)	NC1(c2ccc(-c3ncc4cccnc4c3-c3ccccc3)cc2)CCC1	
199	151	205			NC1(c2ccc(-c3nn4ccccc4c3-c3ccccc3)cc2)CCC1	clearance ([2]; whole blood): 171 mL/min/kg; Vd [4]: 8 L/kg; bioavailability [5]: 0%
301	179	535			NC1(c2ccc(-c3ncc4ccccc4c3-c3ccccc3)cc2)CCC1	
787	483	604	2.5	1500 (≈ 509 µg/mL)	NC1(c2ccc(-c3ncc4cccn4c3-c3ccccc3)cc2)CCC1	
243	250	557	3.6	290 (≈ 102 µg/mL)	NC1(c2ccc(-c3nc4ccccc4cc3-c3ccccc3)cc2)CCC1	clearance ([2]; in vivo): 26 mL/min/kg; Vd [4]: 3.1 L/kg; bioavailability [5]: 0%; fraction unbound [8]: 0.011; CLH [9]: 148 µL/min
193	98	54	2.2	1400 (≈ 492 µg/mL)	NC1(c2ccc(-c3ncc4ccncc4c3-c3ccccc3)cc2)CCC1	fraction unbound [8]: 0.105
117	37	48	2.2	2200 (≈ 773 µg/mL)	NC1(c2ccc(-c3ncc4cnccc4c3-c3ccccc3)cc2)CCC1	clearance ([2]; whole blood): 40 mL/min/kg; Vd [4]: 0.3 L/kg; CLH [7]: 300 µL/min; fraction unbound [8]: 0.13
